# Laboratory results: paper PMC2206373, “Identification of an altered peptide ligand based on the endogenously presented, rheumatoid arthritis-associated, human cartilage glycoprotein-39(263–275) epitope: an MHC anchor variant peptide for immune modulation” (Arthritis Research & Therapy, 2007)
# pIC50: −log10 of the molar value. Read-outs that look alike come from different tables or passages of the source. No end group written: not given here.
# Tests used:
# T cell hybridoma 20H5 = test: T hybridoma 20H5 IL-2 response; format: cell-based, mouse; details: for Hybridoma response (SI) 20H5: IL-2 by ELISA after 48 h, peptide 10 μg/ml, DRB1*0401 BLCL as APC, SI > 2 positive
# Description: The T cell hybridomas, provided by G Sonderstrup (Stanford, CA, USA), were generated as described. In brief, human CD4, HLA-DRA*101/HLA-DRB*0401 triple transgenic (HLA-DR4trg) mice (devoid of I-Aβ) were immunized in the footpad with 50 μg of purified HC gp-39 mixed in incomplete Freund's adjuvant (IFA). Draining lymph nodes were isolated and T-cell hybridomas were generated by polyethylene glycol fusion of primed and in vitro antigen-restimulated lymph node cells with the AKR BW5147 fusion partner. Following fusion, growth-positive hybridoma wells were screened for reactivity to HC gp-39 and a set of 55 peptides (16 amino acids in length) covering the entire HC gp-39 sequence. HLA-DR4(B1*0401)-restricted hybridomas responsive to both the HC gp-39 protein and the immunodominant epitope 263–275 of HC gp-39 (for example, 5G11, 8B12, 14G11 and 20H5) were cloned, subcloned, characterised and selected for further study.
# HC gp-39-specific IL-2 production by T hybridomas was measured in wells of round-bottomed microtiter plates. Hybridoma cells (2 to 5 × 10^4) and irradiated APC (0.5 to 1 × 10^5; 12,000 to 16,000 RAD) from the B lymphoblastoid cell line (BLCL) carrying the DRB1*0401 specificity were incubated in 150 μl volumes. Antigen was added in 50 μl volumes to duplicate wells. After 48 h, 100 μl of the culture supernatant was assayed for IL-2 production using a sandwich ELISA with Pharmingen antibodies specific for mouse IL-2. The antigen sensitivity of the hybridomas to both peptide and protein was determined (Figure 2). […] In later assays, an excess of peptide or APL (10 μg/ml), inducing maximal responses in all hybridomas, was tested.
# HLA-DR4(B1*0401) = HLA-DR4(B1*0401) (Homo sapiens, UniProt P01903+P01911, A100K/A169T/F76Y/I96L/K127E/L162R/M171V/N62H/P40V/Q125Y/R42H/S133A/S149N/S66Y/V115G/V209L/W38E); test: HLA-DR4 competition peptide binding assay; details: competition with biotinylated HA307-319 (Y309F) 50 nM, purified HLA-DR4 30 nM, pH 5, 48 h, room temperature
# Description: HLA-DR bound marker peptide was separated from free marker peptide and the amount of bound marker peptide was detected and quantified by enhanced chemoluminescense. Inhibition curves were generated and the IC50 was determined. The concentration of competitor peptide inducing 50% inhibition of marker peptide binding was determined, and expressed as the 50% inhibitory concentration (IC50 in μM).
# [1] = system: popliteal lymph node cells from F265(Dip)-immunized HLA-DR4trg mice; test: Antigen-specific cytokine production of popliteal lymph node cells from F265(Dip)-immunized mice; format: cell-based, mouse; details: Figure 4b
# Description: (§1) Mice, obtained from L Fugger (Oxford, UK), were immunized in the hind footpads with 2 × 50 μg of purified recombinant HC gp-39, with 2 × 100 μg of the WT peptide or with 2 × 100 μg of the APL (F265(Dip); compound 28; Figure 1) mixed in IFA. Seven days later, popliteal lymph node cell suspensions (1 to 2 × 10^5 cells/well) were stimulated in vitro with HC gp-39 (50, 10 or 2 μg/ml), HC gp-39(263–275) or APL (10, 2 and 0.4 μg/ml). At 96 h, 50 μl of culture medium was harvested for analysis of antigen-specific cytokine production using Luminex technology (mouse cytokine 18 Plex Panel, catalogue no. 171-F11181, Biorad, Bio-Rad Laboratories, Hercules, CA, USA). In addition, cultures were labelled with tritiated thymidine (for 18 h) and antigen-specific proliferation was determined. We state that all animal experimentation received ethics approval and animals were treated according to the recognized guidelines.
# T cell hybridoma 5G11 = test: T hybridoma 5G11 IL-2 response; format: cell-based, mouse; details: for Hybridoma response (SI) 5G11: IL-2 by ELISA after 48 h, peptide 10 μg/ml, SI > 2 positive
# HLA-DRB1*0402 = HLA-DRB1*0402 (Homo sapiens, UniProt P01903+P01911, A100E/A169T/F76Y/K127E/L162R/M171V/N62H/P40V/Q125Y/Q99D/R42H/S133A/S149N/S66Y/V209L/W38E); details: cited from earlier work
# Text: (§2) Four TCR contact sites (Ala268, Ser269, Glu271 and Thr272) are important for polyclonal T cell activation. No information is available on important residues in the MHC α-chain, but for the β chain information on MHC restriction can be used (data not shown). The peptide does bind to HLA-DRB1*0402, B1*0405 and B1*0101 [7]. […] This leads to the view of the MHC-peptide complex in Figure 3b. Some of these MHC β-chain residues are th ...
# B1*0101 = details: cited from earlier work
# Text: as §2
# B1*0405 = details: cited from earlier work
# Text: as §2
# [2] = system: popliteal lymph node cells from HC gp-39(263–275)-immunized huCD4, HLA-DR4 transgenic mice; test: Antigen-specific proliferation of popliteal lymph node cells from WT peptide-immunized mice; format: cell-based, mouse; details: 96 h, tritiated thymidine, background 407 cpm, SI > 2 positive, SD not above 30%
# Description: as §1
# [3] = system: popliteal lymph node cells from F265(Dip)-immunized HLA-DR4trg mice; test: Antigen-specific proliferation of popliteal lymph node cells from F265(Dip)-immunized mice; format: cell-based, mouse; details: Figure 4b
# Description: as §1
# T cell hybridoma 14G11 = test: T hybridoma 14G11 IL-2 response; format: cell-based, mouse; details: for Hybridoma response (SI) 14G11: IL-2 by ELISA after 48 h, peptide 10 μg/ml, SI > 2 positive
# T cell hybridoma 8B12 = test: T hybridoma 8B12 IL-2 response; format: cell-based, mouse; details: for Hybridoma response (SI) 8B12: IL-2 by ELISA after 48 h, peptide 10 μg/ml, SI > 2 positive
# [4] = Figure 2a dose response, IL-2 ELISA after 48 h
sequence,measurement,setting,value
"RSFTLASSETGVG [Compound 1, HC gp-39(263–275)]","Peptide concentration for half maximal stimulation (IL-2), 20H5",T cell hybridoma 20H5; [4],0.02 µg/mL
same,Hybridoma response (SI) 20H5,"T cell hybridoma 20H5; Table 1, background 35,749 counts, representative of at least three experiments",26 SI
same,Hybridoma response (SI) 20H5,"T cell hybridoma 20H5; Table 2, background 290,666 counts, SD not above 15%",5 SI
same,pIC50,"HLA-DR4(B1*0401); Figure 1, read-out: DRB1*0401 binding IC50",8.00
same,pIC50,"HLA-DR4(B1*0401); Table 1, geometric mean of two experiments, read-out: HLA-DR binding IC50",6.92
same,In vitro recall IFNγ production in words,[1],failed to induce significant levels
same,In vitro recall Mip1α production in words,[1],failed to induce significant levels
same,In vitro recall RANTES production in words,[1],failed to induce significant levels
same,T hybridoma (SI) 5G11,"T cell hybridoma 5G11; Figure 1, IL-2 production, DRB1*0401 BLCL as APC, duplicate or triplicate, background 29,203 counts, ±30% of WT response = super/partial agonist",29 SI
same,"Peptide concentration for half maximal stimulation (IL-2), 5G11",T cell hybridoma 5G11; [4],2 µg/mL
same,Hybridoma response (SI) 5G11,"T cell hybridoma 5G11; Table 1, DRB1*0401 BLCL as APC, background 8,147 counts, representative of at least three experiments",13 SI
same,Hybridoma response (SI) 5G11,"T cell hybridoma 5G11; Table 2, DRB1*0401 BLCL as APC, background 17,238 counts, SD not above 15%",17 SI
same,Binding to HLA-DRB1*0402 in words,HLA-DRB1*0402,does bind
same,Binding to HLA-DRB1*0101 in words,B1*0101,does bind
same,Binding to HLA-DRB1*0405 in words,B1*0405,does bind
same,Prol (SI),[2]; peptide 0.4 μg/ml,3 SI
same,Prol (SI),[2]; peptide 2 μg/ml,6 SI
same,Prol (SI),[2]; peptide 10 μg/ml,8 SI
same,In vitro recall proliferative response in words,[3],somewhat less
same,T hybridoma (SI) 14G11,"T cell hybridoma 14G11; Figure 1, IL-2 production, DRB1*0401 BLCL as APC, duplicate or triplicate, background 7,152 counts, ±30% of WT response = super/partial agonist",35 SI
same,"Peptide concentration for half maximal stimulation (IL-2), 14G11",T cell hybridoma 14G11; [4],0.26 µg/mL
same,Hybridoma response (SI) 14G11,"T cell hybridoma 14G11; Table 1, DRB1*0401 BLCL as APC, background 8,598 counts, representative of at least three experiments",15 SI
same,Hybridoma response (SI) 14G11,"T cell hybridoma 14G11; Table 2, DRB1*0401 BLCL as APC, background 10,131 counts, SD not above 15%",30 SI
same,T hybridoma (SI) 8B12,"T cell hybridoma 8B12; Figure 1, IL-2 production, DRB1*0401 BLCL as APC, duplicate or triplicate, background 16,288 counts, ±30% of WT response = super/partial agonist",19 SI
same,"Peptide concentration for half maximal stimulation (IL-2), 8B12",T cell hybridoma 8B12; [4],0.21 µg/mL
same,Hybridoma response (SI) 8B12,"T cell hybridoma 8B12; Table 1, DRB1*0401 BLCL as APC, background 7,470 counts, representative of at least three experiments",9 SI
same,Hybridoma response (SI) 8B12,"T cell hybridoma 8B12; Table 2, DRB1*0401 BLCL as APC, background 8,773 counts, SD not above 15%",39 SI
